Test results taken from patent US7902361B2, “Pyrimidin-4-yl-3, 4-thione compounds and their use in therapy” (Cyclacel Limited, priority 2003, dated 2011).
Like-named read-outs stand apart in the source and are kept apart here.

Key:
[1] = molecular target: T1, GSK3β (Homo sapiens, UniProt P49841); assay: GSK3β in vitro kinase assay; type: biochemical; details: recombinant human GSK3β, 100 μM ATP
T1 construct: purchased New England Biolabs
Method in brief: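 Radiometric filter-binding assay with GSK3β (1.5 units), 200 μM CREB phosphopeptide, 100 μM ATP plus [γ-32P]ATP, in 20 mM Tris HCl pH7.5, 5 mM DTT, 15 mM MgCl2, 2% DMSO; 30 min at 30° C, stopped with phosphoric acid. 32P incorporation counted by scintillation; IC50 from 10-point titration.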

[2] = molecular target: CDK9/cyclin T1 (Homo sapiens, UniProt P50750); assay: Kinase assay CDK9/cyclin T1; type: biochemical; details: Ki calculated (Cheng-Prusoff) from experimentally determined IC50 and Km,ATP; read-out: Kinase Inhibition Ki CDK9 - cyclin T1
Method in brief: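 Radiometric filter assays used recombinant kinases or complexes (2-4 μg) with appropriate polypeptide substrates in pH 7.4 β-glycerophosphate/MOPS buffer. Reactions were started with 15 mM MgCl2 and 100 μM ATP containing [γ-32P]-ATP and run at 30° C. Phosphate incorporated into substrate was counted by scintillation after washing.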

[3] = molecular target: T2, GSK3α (Homo sapiens, UniProt P49840); assay: GSK3α in vitro kinase assay; type: biochemical; details: recombinant human GSK3α, 100 μM ATP
T2 construct: purchased Upstate
Procedure: Both isoforms of GSK3 (α and β) are involved in the regulation of glycogen synthase activity—key enzyme in the glycogen metabolism. The inhibitory potency of example compounds was determined using in vitro kinase assays with recombinant human GSK3-α and -β; the IC50 values determined are presented in Table 9.
A 10-point titration was set up to determine the IC50 values of selected example compounds against GSK3β. Assays were performed using 96-well microtiter plates with a final volume of 25 μL per well. Each assay contained 1.5 units of GSK3β(New England Biolabs), 200 μM CREB phosphopeptide ([…]pSYR, Alta Biosciences), 20 mM Tris HCl pH7.5, 5 mM DTT, 15 mM MgCl2 supplemented with 100 μM ATP and 0.5 μCi of [γ-^32P] ATP plus or minus inhibitor in 2% DMSO. Assays were carried out for 30 minutes at 30° C. before stopping the reaction by the addition of an equal volume of 75 mM aqueous phosphoric acid. Samples were then spotted onto a p81 filterplate (Whatman) and a vacuum was applied. Wells were washed 3 times with 200 μL of dilute aqueous phosphoric acid before the addition of 50 μL Microscint 40 per well. Incorporation of radioactivity was determined on a Topcount microplate scintillation counter (Packard).
GSK3α (Upstate) was assayed exactly as described above except that 1 ng of enzyme was added per assay point.

[4] = system: glycogen synthase; assay: Glycogen synthase activation in HEK293 cells; type: cell-based; details: for Max FI (% to LiCl): maximum fold induction normalised to 40 mM LiCl
Procedure: HEK293 cells, mouse adipocytes or rat myotubes were treated in 10-cm Petri dishes with different concentrations of GSK3 inhibitor example compounds for 90 minutes. At the end of the treatment period the cells were washed and scraped in ice cold PBS buffer supplemented with 20 mM NaF. The cells were pelleted by centrifugation and lysed in 300 μL buffer (50 mM.HEPES pH 7.5, 10 mM EDTA, 100 mM NaF, 5 mM DTT, protease inhibitor cocktail (Sigma)). After incubation for 30 min on ice the samples were cleared by centrifugation. The activity of glycogen synthase was determined in the soluble fraction at two different concentrations of […]—low (0.1 mM) and high (10 mM). The reaction was carried out for 30 min (buffer: 50 mM Tris pH 7.8, 20 mM EDTA, 25 mM NaF, 5 mM DTT). The reaction mixture (total volume of 90 μL) contained 1% glycogen, 0.3 mM UDP-glucose and 0.06 μCi ^14C-UDP-glucose. Reaction was stopped by transfer of 70 μL to a GFC 96-well filter plate, containing 140 μL 100% ethanol and the glycogen was allowed to precipitate for 1 h at 4° C. The wells were washed 2 times with 200 μL 66% ethanol and than allowed to dry. Subsequently, 100 μL of scintillation liquid was added, and plates were sealed and counted in a Packard Topcounter. Glycogen synthase activation was calculated as the ratio between the incorporation of labelled ^14C-UDP-glucose in glycogen at low and high concentration of […] (fractional velocity).
The ability of GSK3 inhibitors to activate glycogen synthase was determined in HEK293 cells, mouse adipocytes and rat myotubed. The compounds tested activated glycogen synthase in all three cellular systems with EC50 values in the sub-micromolar to low micromolar concentration range. Most of them exceeded the stimulation induced by 40 mM LiCl (the highest compound concentration used in the assay was 20 μM).

[5] = molecular target: T3, DYRK1A (Homo sapiens, UniProt Q13627); assay: DYRK1A in vitro kinase assay; type: biochemical; details: recombinant human DYRK1A, 100 μM ATP
T3 construct: purchased Upstate
Excerpt: Dual specificity tyrosine phosphorylation regulated kinase 1A (DYRK1A) has been proposed, amongst other functions, to play a role in the regulation of glycogen metabolism in a way similar to GSK3. Some of the example compounds of the present invention were screened against recombinant human DYRK1A in vitro and the determined IC50 values are shown in Table 9. According to our current knowledge inhibition of DYRK1A will have additional positive effect on stimulation of glycogen synthase.
A 10-point titration was set up to determine the IC50 values of selected example compounds against DYRK1A. Assays were performed using 96-well microtiter plates and a final volume of 25 μL/well. Each assay contained 2.3 milliunits of DYRK1A (Upstate), 50 μM Woodtide peptide ([…], Upstate), 20 mM Tris HCl pH 8.0, 10 mM DTT, 5 mM EGTA, 1 mM NaVO3, 31 mM β-glycerophosphate, 15 mM MgCl2 supplemented with 100 μM ATP and 0.5 μCi of [γ-^32P] ATP plus or minus inhibitor in 2% DMSO. Assays were carried out for 60 minutes at 30° C. before stopping the reaction by the addition of an equal volume of 75 mM aqueous phosphoric acid. Samples were then spotted onto a p81 filterplate (Whatman) and a vacuum applied. Wells were washed 3 times with 200 μL of dilute aqueous phosphoric acid before the addition of 50 μL Microscint 40 per well. Incorporation of radioactivity was determined on a Topcount microplate scintillation counter (Packard).

CDK9/cyclin T1, sequence (P50750 whole entry, species assumed): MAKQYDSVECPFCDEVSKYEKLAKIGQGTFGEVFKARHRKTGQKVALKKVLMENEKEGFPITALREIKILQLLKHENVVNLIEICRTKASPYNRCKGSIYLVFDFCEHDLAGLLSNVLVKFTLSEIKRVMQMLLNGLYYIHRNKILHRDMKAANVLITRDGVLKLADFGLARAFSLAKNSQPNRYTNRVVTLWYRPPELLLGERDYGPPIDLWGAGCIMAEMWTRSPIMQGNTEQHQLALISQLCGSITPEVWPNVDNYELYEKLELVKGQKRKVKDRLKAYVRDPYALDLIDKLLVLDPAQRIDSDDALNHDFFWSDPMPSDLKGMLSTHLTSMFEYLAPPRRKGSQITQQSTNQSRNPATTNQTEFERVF
CDK9/cyclin T1, sequence (O60563 whole entry partner, species assumed): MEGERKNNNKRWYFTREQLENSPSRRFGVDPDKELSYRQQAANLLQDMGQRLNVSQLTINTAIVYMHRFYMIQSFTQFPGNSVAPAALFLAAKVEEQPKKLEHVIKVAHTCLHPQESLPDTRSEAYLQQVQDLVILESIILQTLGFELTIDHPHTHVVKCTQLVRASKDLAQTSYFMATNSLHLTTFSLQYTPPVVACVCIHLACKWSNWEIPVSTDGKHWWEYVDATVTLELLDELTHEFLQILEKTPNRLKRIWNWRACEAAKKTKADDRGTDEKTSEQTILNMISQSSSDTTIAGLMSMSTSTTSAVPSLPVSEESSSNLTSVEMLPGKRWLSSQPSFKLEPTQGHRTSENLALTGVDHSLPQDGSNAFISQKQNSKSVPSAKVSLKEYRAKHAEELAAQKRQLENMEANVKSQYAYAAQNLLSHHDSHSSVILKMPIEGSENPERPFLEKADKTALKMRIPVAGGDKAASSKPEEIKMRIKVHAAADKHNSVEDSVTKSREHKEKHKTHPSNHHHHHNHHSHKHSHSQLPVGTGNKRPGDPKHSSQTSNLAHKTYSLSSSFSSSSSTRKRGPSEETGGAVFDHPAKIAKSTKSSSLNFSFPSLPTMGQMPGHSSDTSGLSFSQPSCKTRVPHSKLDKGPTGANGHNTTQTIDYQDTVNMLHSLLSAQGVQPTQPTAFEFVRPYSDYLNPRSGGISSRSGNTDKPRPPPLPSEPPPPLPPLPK
T2 sequence (P49840 whole entry): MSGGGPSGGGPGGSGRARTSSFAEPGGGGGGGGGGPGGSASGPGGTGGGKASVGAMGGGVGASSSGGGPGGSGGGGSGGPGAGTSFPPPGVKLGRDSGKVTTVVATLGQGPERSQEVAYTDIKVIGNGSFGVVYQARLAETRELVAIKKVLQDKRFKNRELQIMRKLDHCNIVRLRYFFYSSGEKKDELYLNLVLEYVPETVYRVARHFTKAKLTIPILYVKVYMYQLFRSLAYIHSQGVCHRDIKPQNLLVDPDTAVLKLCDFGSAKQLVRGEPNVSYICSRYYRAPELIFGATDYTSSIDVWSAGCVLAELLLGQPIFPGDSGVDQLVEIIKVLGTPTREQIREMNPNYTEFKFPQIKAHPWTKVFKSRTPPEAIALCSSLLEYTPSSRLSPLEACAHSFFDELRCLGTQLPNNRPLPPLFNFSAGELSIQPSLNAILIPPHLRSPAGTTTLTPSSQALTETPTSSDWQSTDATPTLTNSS
T1 sequence (P49841 whole entry): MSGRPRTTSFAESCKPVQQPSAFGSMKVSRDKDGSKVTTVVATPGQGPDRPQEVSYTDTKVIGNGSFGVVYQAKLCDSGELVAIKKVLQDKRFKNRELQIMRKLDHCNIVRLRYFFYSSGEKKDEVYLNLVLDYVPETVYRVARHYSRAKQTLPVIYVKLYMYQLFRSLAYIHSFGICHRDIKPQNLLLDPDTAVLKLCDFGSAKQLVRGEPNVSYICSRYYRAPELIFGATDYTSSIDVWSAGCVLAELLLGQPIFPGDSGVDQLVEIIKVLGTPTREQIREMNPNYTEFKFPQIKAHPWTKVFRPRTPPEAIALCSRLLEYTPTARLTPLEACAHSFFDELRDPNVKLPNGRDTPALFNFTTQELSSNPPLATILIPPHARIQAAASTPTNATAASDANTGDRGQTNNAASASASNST

Row | IC50 [1] | Ki [2] | IC50 [3] | EC50 ([4]; Homo sapiens) | IC50 [5] | SMILES | Max FI (% to LiCl) [4] | EC50 [4]
1 | 0.022 µM | 0.0048 µM | 0.027 µM | 0.684 ± 0.133 µM | 0.051 µM | CCNS(=O)(=O)c1cccc(Nc2nccc(-c3sc(=O)n(C)c3C)n2)c1 [Compound 62, 3-[4-(3,4-Dimethyl-2-oxo-2,3-dihydro-thiazol-5-yl)-pyrimidin-2-ylamino]-N-ethyl-benzenesulfonamide] | 117 % to LiCl | 
2 | 0.025 µM | 0.0095 µM | 0.031 µM | 5.17 ± 2.2 µM | 0.026 µM | Cc1c(-c2ccnc(Nc3cccc(S(=O)(=O)NCCO)c3)n2)sc(=O)n1C [Compound 75, 3-[4-(3,4-Dimethyl-2-oxo-2,3-dihydro-thiazol-5-yl)-pyrimidin-2-ylamino]-N-(2-hydroxy-ethyl)-benzenesulfonamide] | 108 % to LiCl | 
3 | 0.003 µM | 0.0057 µM | 0.0024 µM | 0.049 ± 0.07 µM | 0.077 µM | CC(=O)Nc1cc(Nc2nccc(-c3sc(=O)n(C)c3C)n2)cc(C(F)(F)F)c1 [Compound 64, N-{3-[4-(3,4-Dimethyl-2-oxo-2,3-dihydro-thiazol-5-yl)-pyrimidin-2-ylamino]-5-trifluoromethyl-phenyl}-acetamide] | 107 % to LiCl | 
4 | 0.061 µM | 0.14 µM | 0.136 µM | 8.34 ± 1.88 µM | 0.073 µM | Cc1c(-c2ccnc(Nc3cc(Br)cc(C(F)(F)F)c3)n2)sc(=O)n1C [Compound 68, 5-[2-(3-Bromo-5-trifluoromethyl-phenylamino)-pyrimidin-4-yl]-3,4-dimethyl-3H-thiazol-2-one] | 96 % to LiCl | 
5 | 0.023 µM | 0.0048 µM | 0.0178 µM | 3.72 ± 2.5 µM | 0.019 µM | COCCNS(=O)(=O)c1cccc(Nc2nccc(-c3sc(=O)n(C)c3C)n2)c1 [Compound 67, 3-[4-(3,4-Dimethyl-2-oxo-2,3-dihydro-thiazol-5-yl)-pyrimidin-2-ylamino]-N-(2-methoxy-ethyl)-benzenesulfonamide] | 85 % to LiCl | 

Row | SMILES | IC50 [1] | Ki [2] | IC50 [3] | EC50 ([4]; Homo sapiens) | IC50 [5] | Max FI (% to LiCl) [4] | EC50 [4]
6 | CNc1cc(Nc2nccc(-c3sc(=O)n(C)c3C)n2)cc(C(F)(F)F)c1 [Compound 76, 3,4-Dimethyl-5-[2-(3-methylamino-5-trifluoromethyl-phenylamino)-pyrimidin-4-yl]-3H-thiazol-2-one] | 0.0189 µM | 0.021 µM | 0.042 µM |  | 0.148 µM | 88 % to LiCl | 0.444 ± 0.178 µM
